# In ChEMBL document CHEMBL1201862, “PubChem BioAssay data set” (2004):
# Active and inactive are the calls of the source. Cut-off read from the data, not from the text of the source: active = IC50 of 10 µM or less and inactive = more.
# Key:
# [1] = target: Melanin-concentrating hormone receptor 1 (Homo sapiens, UniProt Q99705); assay: Late-stage fluorescence-based counterscreen for antagonists of the G-protein coupled receptor 7 (GPR7): cell-based dose response assay to identify antagonists of the melanin-concentrating hormone receptor 1 (MCHR1) Set 5.; format: functional
# Chain of Melanin-concentrating hormone receptor 1 (Q99705 whole entry): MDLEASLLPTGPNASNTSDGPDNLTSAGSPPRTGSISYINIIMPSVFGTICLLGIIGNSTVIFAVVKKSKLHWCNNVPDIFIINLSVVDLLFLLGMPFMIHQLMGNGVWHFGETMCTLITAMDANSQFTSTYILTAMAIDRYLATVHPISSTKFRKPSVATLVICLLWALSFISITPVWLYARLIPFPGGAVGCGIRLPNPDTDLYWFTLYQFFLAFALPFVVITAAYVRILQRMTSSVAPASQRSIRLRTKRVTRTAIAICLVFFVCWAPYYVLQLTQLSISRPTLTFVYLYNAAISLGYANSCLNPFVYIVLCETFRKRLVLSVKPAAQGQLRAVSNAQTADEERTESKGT
# [2] = target: Neuropeptides B/W receptor type 1 (Homo sapiens, UniProt P48145); assay: GPR7 antagonist potency, late-stage follow-up, cell-based, fluorescence, dose response, set 5 (AID 588566); format: functional
# Chain of Neuropeptides B/W receptor type 1 (P48145 whole entry): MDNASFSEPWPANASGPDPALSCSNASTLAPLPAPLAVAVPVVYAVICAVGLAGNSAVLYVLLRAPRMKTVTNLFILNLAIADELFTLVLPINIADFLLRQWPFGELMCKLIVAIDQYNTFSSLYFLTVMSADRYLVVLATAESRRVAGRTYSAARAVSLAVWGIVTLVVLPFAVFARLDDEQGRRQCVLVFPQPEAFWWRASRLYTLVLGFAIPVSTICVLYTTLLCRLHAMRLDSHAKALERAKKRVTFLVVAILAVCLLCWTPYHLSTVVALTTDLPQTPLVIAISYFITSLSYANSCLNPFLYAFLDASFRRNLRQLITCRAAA
smiles,measurement,setting,value
O=c1c(Cl)c(Oc2ccc3c(c2)CCO3)cnn1Cc1cccc2ccccc12,IC50,[1],10.4 µM (inactive)
same,IC50,[2],3.22 µM (active)
